Drawing on patent US6962931B2, “Self-emulsifying formulations of cholesteryl ester transfer protein inhibitors” (Pfizer Inc., priority 2001, dated 2005), this text covers Cmax and AUC(0-t) for one compound.

The nature of this data set: PK in rat, oils or preformed emulsions by oral gavage. On the set-up: species or system Sprague Dawley rats. Particulars: Sprague-Dawley, in vivo. The text has this:
Emulsions prepared from olive oil/surfactant provided the best results.

Regarding `CCOC(=O)N1c2ccc(C(F)(F)F)cc2[C@@H](N(Cc2cc(C(F)(F)F)cc(C(F)(F)F)c2)C(=O)OC)C[C@H]1CC` [Compound A, [2R,4S] 4-[(3,5-bis-trifluoromethyl-benzyl)-methoxycarbonyl-amino]-2-ethyl-6-trifluoromethyl-3,4-dihydro-2H-quinoline-1-carboxylic acid ethyl ester], the peak level (100 mg/kg, crystalline ethanolate, Miglyol/Cremophor/0.5% HPMCAS 40/10/50, 100 mg/kg) (Cmax) was 1600 ng/mL; the peak level (100 mg/kg, crystalline ethanolate, Miglyol/Cremophor/water 40/10/50, 100 mg/kg, conc. in oil 100 mg/mL) (Cmax) was 1900 ng/mL; the highest level (100 mg/kg, crystalline ethanolate, Olive oil/Cremophor 80/20, 100 mg/kg) (Cmax) was 3600 ng/mL; the Cmax – broadly, the maximum level reached in the sampled fluid or tissue – (100 mg/kg, crystalline ethanolate, Olive oil/Cremophor/water 40/10/50, 100 mg/kg, conc. in oil 20 mg/mL) amounted to 6200 ng/mL; the Cmax (300 mg/kg, amorphous anhydrous, Olive oil) is 7300 ng/mL; the maximum concentration (Cmax) (375 mg/kg, crystalline ethanolate, Olive oil/caprylic acid/Cremophor/water 10/30/10/50, 375 mg/kg) was determined as 4100 ng/mL. Moreover, the Cmax reads like this: (500 mg/kg, crystalline ethanolate, Miglyol) 2100 ng/mL; (500 mg/kg, crystalline ethanolate, Miglyol/Cremophor/water 40/10/50, 500 mg/kg, conc. in oil 100 mg/mL) 4600 ng/mL; (625 mg/kg, crystalline ethanolate, Olive oil/caprylic acid/triacetin/Cremophor/water 10/15/15/10/50, 625 mg/kg) 4800 ng/mL. The AUC(0-t) (usually exposure summed from dosing to a finite time, without extrapolation to infinity) amounted to 15000 ng·h/mL (100 mg/kg, crystalline ethanolate, Miglyol/Cremophor/0.5% HPMCAS 40/10/50, 100 mg/kg, Tlast = 24 hr); 23000 ng·h/mL (100 mg/kg, crystalline ethanolate, Miglyol/Cremophor/water 40/10/50, 100 mg/kg, Tlast = 24 hr); 45000 ng·h/mL (100 mg/kg, crystalline ethanolate, Olive oil/Cremophor 80/20, 100 mg/kg, Tlast = 24 hr); 33000 ng·h/mL (100 mg/kg, crystalline ethanolate, Olive oil/Cremophor/water 40/10/50, 100 mg/kg, Tlast = 9 hr); 50000 ng·h/mL (300 mg/kg, amorphous anhydrous, Olive oil, Tlast = 24 hr); 21000 ng·h/mL (375 mg/kg, crystalline ethanolate, Olive oil/caprylic acid/Cremophor/water 10/30/10/50, 375 mg/kg, Tlast = 9 hr). The AUC(0-t) reads like this: (500 mg/kg, crystalline ethanolate, Miglyol, Tlast = 24 hr) 27000 ng·h/mL; (500 mg/kg, crystalline ethanolate, Miglyol/Cremophor/water 40/10/50, 500 mg/kg, Tlast = 9 hr) 18000 ng·h/mL; (625 mg/kg, crystalline ethanolate, Olive oil/caprylic acid/triacetin/Cremophor/water 10/15/15/10/50, 625 mg/kg, Tlast = 9 hr) 26000 ng·h/mL.
